Our source for the IC50 values is patent US20100249145A1, “Inhibitors of VEGF Receptor and HGF Receptor Signaling” (Methylgene, Inc., priority 2005, published 2010).

Molecules are shown by their SMILES.

The target in one test is T1, VEGF receptor KDR (Homo sapiens, UniProt P35968).
T1 construct: made in house; host or cells: Sf9 cells (Spodoptera frugiperda), recombinant baculovirus
Put plainly: In vitro receptor tyrosine kinase assay (DELFIA), VEGF receptor KDR. It is filed as biochemical. The following applies: Table 30; ATP 0.6 uM, enzyme 5 nM; read-out: VEGF(enz.) (IC50). The text has this:
In Vitro Receptor Tyrosine Kinase Assays (c-Met/HGF receptor and VEGF Receptor KDR)
In the case of VEGF receptor KDR a 1.6-kb cDNA corresponding to the catalytic domain of VEGFR2 or KDR (Genbank accession number AF035121 amino acid 806 to 1356) was cloned into the Pst I site of the pDEST20 Gateway vector (Invitrogen) for the production of a GST-tagged version of that enzyme.
The GST-VEGFR2806-1356 protein was expressed in Sf9 cells (Spodoptera frugiperda) upon infection with recombinant baculovirus construct.
The supernatant was loaded onto a GST-agarose column (Sigma) equilibrated with PBS pH 7.3. Following a four column volume (CV) wash with PBS pH 7.3+1% Triton X-100 and 4 CV wash with buffer B (50 mM Tris pH 8.0, 20% glycerol and 100 mM NaCl), bound proteins were step eluted with 5 CV of buffer B supplemented with 5 mM DTT and 15 mM glutathion. […] Final GST-VEGFR2806-1356 protein preparations concentrations were about 0.7 mg/ml with purity approximating 70%.

Test [1] concerns the target T2, recombinant human c-Met/HGF receptor (Homo sapiens, UniProt P08581).
T2 construct: His tag (histidine tag from pBlueBacHis2A); made in house; host or cells: Hi-5 cells (Trichoplusia ni), recombinant baculovirus
Put plainly: In vitro receptor tyrosine kinase assay (DELFIA), c-Met/HGF receptor. The following applies: Table 30; ATP 10 uM, enzyme 25 nM; read-out: C-Met (enz.) (IC50). The class given is biochemical.

T1 sequence (P35968 806-1356): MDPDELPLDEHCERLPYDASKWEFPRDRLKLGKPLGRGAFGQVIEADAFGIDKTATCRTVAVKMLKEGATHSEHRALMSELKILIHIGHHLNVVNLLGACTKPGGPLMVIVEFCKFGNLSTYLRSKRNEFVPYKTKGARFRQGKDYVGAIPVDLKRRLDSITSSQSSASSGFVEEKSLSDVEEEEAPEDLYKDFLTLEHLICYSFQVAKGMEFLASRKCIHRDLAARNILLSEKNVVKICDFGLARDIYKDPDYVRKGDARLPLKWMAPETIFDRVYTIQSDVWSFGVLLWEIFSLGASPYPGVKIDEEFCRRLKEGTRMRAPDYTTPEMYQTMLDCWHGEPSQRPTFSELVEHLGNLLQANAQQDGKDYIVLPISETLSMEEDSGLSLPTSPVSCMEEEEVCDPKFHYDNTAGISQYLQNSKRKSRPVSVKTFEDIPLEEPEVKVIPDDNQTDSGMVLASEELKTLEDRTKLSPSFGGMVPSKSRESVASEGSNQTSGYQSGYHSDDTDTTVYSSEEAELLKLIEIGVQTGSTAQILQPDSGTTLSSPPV
T2 sequence (P08581 1078-1337): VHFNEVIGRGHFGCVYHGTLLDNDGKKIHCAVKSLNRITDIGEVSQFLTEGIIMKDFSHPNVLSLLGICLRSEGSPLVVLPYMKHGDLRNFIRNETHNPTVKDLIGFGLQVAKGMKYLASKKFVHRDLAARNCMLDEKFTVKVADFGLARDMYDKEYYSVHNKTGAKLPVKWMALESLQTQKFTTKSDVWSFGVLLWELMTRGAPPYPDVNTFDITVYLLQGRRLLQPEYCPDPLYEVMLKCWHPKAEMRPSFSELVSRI

As for `CNC(=O)c1cc2nccc(Oc3ccc(NC(=S)NC(=O)Cc4ccccc4)cc3F)c2s1` [Example 5, 1-(4-(2-(methylcarbamoyl)thieno[3,2-b]pyridin-7-yloxy)-3-fluorophenyl)-3-(2-phenylacetyl)thiourea], the IC50 on VEGF receptor KDR fell in the range of 50 to 250 nM.

Regarding `NC(=O)c1cc2nccc(Oc3ccc(NC(=S)NC(=O)Cc4ccccc4)cc3F)c2s1` [Example 9, 1-(4-(2-carbamoylthieno[3,2-b]pyridin-7-yloxy)-3-fluorophenyl)-3-(2-phenylacetyl)thiourea], the IC50 on VEGF receptor KDR fell in the range of 50 to 250 nM.

For the molecule `O=C(Cc1ccccc1)NC(=S)Nc1ccc(Oc2ccnc3cc(-c4ncccn4)sc23)c(F)c1` [Example 14, N-(3-Fluoro-4-(2-(pyrimidin-2-yl)thieno[3,2-b]pyridin-7-yloxy)phenylcarbamothioyl)-2-phenylacetamide], the IC50 at VEGF receptor KDR lay in the range of 50 to 250 nM.

Turning to `O=C(Cc1ccccc1)NC(=S)Nc1ccc(Oc2ccnc3cc(-c4cccs4)sc23)c(F)c1` [Example 16], on VEGF receptor KDR, the half-maximal inhibitory concentration (IC50) was less than 50 nM.

Turning to `O=C(Cc1ccccc1)NC(=S)Nc1ccc(Oc2ccnc3cc(-c4cccnc4)sc23)c(F)c1` [Example 18], on VEGF receptor KDR, the IC50 was in the range of 50 to 250 nM.

For the molecule `CC(O)c1cc2nccc(Oc3ccc(NC(=S)NC(=O)Cc4ccccc4)cc3F)c2s1` (stereo not drawn) [Example 20, 1-(4-(2-(1-Hydroxyethyl)thieno[3,2-b]pyridin-7-yloxy)-3-fluorophenyl)-3-(2-phenylacetyl)thiourea], the half-inhibitory concentration (IC50) at VEGF receptor KDR is more than 500 nM.

In the case of `CNC(=O)c1cc2ncnc(Oc3ccc(NC(=S)NC(=O)Cc4ccccc4)cc3F)c2s1` [Example 25, 1-(4-(6-(Methylcarbamoyl)thieno[3,2-d]pyrimidin-4-yloxy)-3-fluorophenyl)-3-(2-phenylacetyl)thiourea], the IC50 (on VEGF receptor KDR; in test [1]) was 50 to 250 nM in each case.

As for `CON(C)C(=O)c1cc2ncnc(Oc3ccc(NC(=S)NC(=O)Cc4ccccc4)cc3F)c2s1` [Example 26, 1-(4-(6-(N-Methoxy-N-methylcarbamoyl)thieno [3,2-d]pyrimidin-4-yloxy)-3-fluorophenyl)-3-(2-phenylacetyl)thiourea], the IC50 (at VEGF receptor KDR; in test [1]) was 50 to 250 nM in each case.

In the case of `NC(=O)c1cc2ncnc(Oc3ccc(NC(=S)NC(=O)Cc4ccccc4)cc3F)c2s1` [Example 27, 1-(4-(6-Carbamoylthieno[3,2-d]pyrimidin-4-yloxy)-3-fluorophenyl)-3-(2-phenylacetyl)thiourea], the IC50 (on VEGF receptor KDR; in test [1]) was 50 to 250 nM throughout.

Consider `Cn1ccc2ncnc(Oc3ccc(NC(=S)NC(=O)Cc4ccccc4)cc3F)c21` [Example 28, 1-(4-(5-Methyl-5H-pyrrolo[3,2-d]pyrimidin-4-yloxy)-3-fluorophenyl)-3-(2-phenylacetyl)thiourea], for which the half-inhibitory concentration (IC50) was more than 500 nM on VEGF receptor KDR and 50 to 250 nM in test [1].

Consider `CCn1ccc2ncnc(Oc3ccc(NC(=S)NC(=O)Cc4ccccc4)cc3F)c21` [Example 29, 1-(4-(5-Ethyl-5H-pyrrolo[3,2-d]pyrimidin-4-yloxy)-3-fluorophenyl)-3-(2-phenylacetyl)thiourea], for which the 50% inhibitory concentration (IC50) at VEGF receptor KDR is more than 500 nM; in test [1] it was 250 to 500 nM.

With `O=C(Cc1ccccc1)NC(=S)Nc1ccc(Oc2ccnc3ccsc23)c(F)c1` [Example 133, N-(3-Fluoro-4-(thieno[3,2-b]pyridin-7-yloxy)phenylcarbamothioyl)-2-phenylacetamide], the IC50 on VEGF receptor KDR was in the range of 50 to 250 nM.

As for `O=C(Cc1ccccc1)NC(=S)Nc1ccc(Oc2ccnc3ccsc23)cc1` [Example 188, 2-Phenyl-N-(4-(thieno[3,2-b]pyridin-7-yloxy)phenylcarbamothioyl)acetamide], the 50% inhibitory concentration (IC50) on VEGF receptor KDR was more than 500 nM.

As usually defined, the IC50 is the concentration that gives 50% inhibition.
